{"source": "patent US20250099444A1", "about": "“Methods of Treating a Subject for Long-Haul COVID-19, and Compositions for Use in the Same” (IncellDx, Inc., priority 2022, published 2025)", "origin": "cited, not measured here", "test_system": "R5-tropic HIV-1", "data": [{"smiles": "Cc1nnc(C(C)C)n1[C@@H]1C[C@H]2CC[C@@H](C1)N2CC[C@H](NC(=O)C1CCC(F)(F)CC1)c1ccccc1", "note": "[maraviroc, 4,4-difluoro-N-[(1S)-3-[(1S,5R)-3-(3-methyl-5-propan-2-yl-1,2,4-triazol-4-yl)-8-azabicyclo[3.2.1]octan-8-yl]-1-phenylpropyl]cyclohexane-1-carboxamide]", "values": [{"measurement": "incidence of hepatoxicity (MOTIVATE study)", "setting": "96 weeks of treatment at 300 mg B.I.D", "result": "low incidence of hepatoxicity"}, {"measurement": "death and other health threats, long-term follow-up of MOTIVATE trials", "setting": ">5 year follow-up, HIV patients", "result": "limited instances of death and other health threats such as hepatic failure and myocardial infarctions"}, {"measurement": "HIV viral loads (MOTIVATE 1 and MOTIVATE 2)", "setting": "individuals with R5-tropic HIV-1", "result": "lower levels of HIV viral loads"}]}]}
